Laboratory results published in the supplement of paper PMC10307832.

Legend:
Assay in all cases: relative viability (nuclei count vs DMSO), 5 days (fraction); higher = more cells survive
Selumetinib + OSI-027 = compound: Cn1cnc2c(F)c(Nc3ccc(Br)cc3Cl)c(C(=O)NOCCO)cc21 [Selumetinib] + COc1cccc2cc(-c3nc([C@H]4CC[C@H](C(=O)O)CC4)n4ncnc(N)c34)[nH]c12 [OSI-027] (partner 0.5 µM)
Method in brief: (§1)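 One day after seeding in 1536-well plates, lung cancer cell lines were dosed by pin tool. Dosing was either single-drug or a fixed anchor-drug dose plus five library-drug doses (not always all listed) in √10 steps. After 5 days, nuclei were stained in one fix-and-stain step and counted on 4× images, and relative viability is the nuclei count of treated wells over that of vehicle wells, given as the median of duplicate plates.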

Selumetinib + AZD7762 = compound: Cn1cnc2c(F)c(Nc3ccc(Br)cc3Cl)c(C(=O)NOCCO)cc21 [Selumetinib] + NC(=O)Nc1cc(-c2cccc(F)c2)sc1C(=O)N[C@H]1CCCNC1 [AZD7762] (partner 0.2 µM)
Method in brief: as §1

Venetoclax + Foretinib = compound: CC1(C)CCC(CN2CCN(c3ccc(C(=O)NS(=O)(=O)c4ccc(NCC5CCOCC5)c([N+](=O)[O-])c4)c(Oc4cnc5[nH]ccc5c4)c3)CC2)=C(c2ccc(Cl)cc2)C1 [Venetoclax] + COc1cc2c(Oc3ccc(NC(=O)C4(C(=O)Nc5ccc(F)cc5)CC4)cc3F)ccnc2cc1OCCCN1CCOCC1 [Foretinib] (partner 0.25 µM)
Method in brief: as §1

Venetoclax + Lapatinib = compound: CC1(C)CCC(CN2CCN(c3ccc(C(=O)NS(=O)(=O)c4ccc(NCC5CCOCC5)c([N+](=O)[O-])c4)c(Oc4cnc5[nH]ccc5c4)c3)CC2)=C(c2ccc(Cl)cc2)C1 [Venetoclax] + CS(=O)(=O)CCNCc1ccc(-c2ccc3ncnc(Nc4ccc(OCc5cccc(F)c5)c(Cl)c4)c3c2)o1 [Lapatinib] (partner 2 µM)
Method in brief: as §1

Cell Line	relative viability (Selumetinib + OSI-027; first compound 0.02 µM)	relative viability (Selumetinib + OSI-027; first compound 0.06325 µM)	relative viability (Selumetinib + OSI-027; first compound 0.2 µM)	relative viability (Selumetinib + OSI-027; first compound 0.6325 µM)	relative viability (Selumetinib + AZD7762; first compound 0.02 µM)	relative viability (Selumetinib + AZD7762; first compound 0.06325 µM)	relative viability (Selumetinib + AZD7762; first compound 0.2 µM)	relative viability (Selumetinib + AZD7762; first compound 0.6325 µM)	relative viability (Venetoclax + Foretinib; first compound 0.01 µM)	relative viability (Venetoclax + Foretinib; first compound 0.03162 µM)	relative viability (Venetoclax + Foretinib; first compound 0.1 µM)	relative viability (Venetoclax + Foretinib; first compound 0.3162 µM)	relative viability (Venetoclax + Foretinib; first compound 1 µM)	relative viability (Venetoclax + Lapatinib; first compound 0.01 µM)	relative viability (Venetoclax + Lapatinib; first compound 0.03162 µM)	relative viability (Venetoclax + Lapatinib; first compound 0.1 µM)	relative viability (Venetoclax + Lapatinib; first compound 0.3162 µM)	relative viability (Venetoclax + Lapatinib; first compound 1 µM)
201T	0.658	0.674	0.628	0.691	0.602	0.615	0.554	0.6	1.2	1.04	0.976	0.98	1.06	1.07	0.943	0.959	1.02	1.08
A549									0.896	0.871	0.989	0.912	0.883	1.05	0.988	1.04	0.998	0.898
A-427	0.482	0.327	0.321	0.288	0.7	0.613	0.628	0.618	0.957	1.2	0.944	1.24	1.11	0.911	1.02	1.05	1.1	1.13
ABC-1	0.373	0.403	0.367	0.345	0.871	0.591	0.66	0.578	0.867	1.22	0.976	0.961	0.922	1.24	1.17	1.1	1.14	1.13
BEN	0.276	0.315	0.274	0.295	0.587	0.624	0.634	0.736	0.728	0.743	0.561	0.681	0.518	0.745	0.781	0.735	0.626	0.613
CAL-12T	0.636	0.492	0.516	0.395	0.64	0.574	0.566	0.568	1.17	1.14	1.13	1.18	1.05	0.584	0.74	0.577	0.61	0.679
COR-L23	0.798	0.782	0.753	0.565					0.884	1.03	1.04	0.866	0.883	0.921	0.957	0.983	0.922	0.938
COR-L 105	0.612	0.46	0.467	0.343					0.752	0.78	1.15	1	0.991	0.418	0.384	0.326	0.355	0.367
Calu-6									0.907	0.861	0.992	0.846	0.878	1.08	1.13	0.94	1	0.97
ChaGo-K-1	0.562	0.504	0.524	0.528	0.865	0.845	0.905	0.899	1.02	0.944	0.889	0.916	0.949					
EBC-1									0.115	0.0897	0.09	0.0924	0.0981	0.213	0.187	0.234	0.206	0.224
EKVX	0.654	0.645	0.606	0.469	0.713	0.594	0.613	0.502	0.657	1.24	0.332	0.795	0.788	0.191	0.22	0.219	0.193	0.185
EMC-BAC-2	0.42	0.447	0.511	0.483	1.16	1.11	0.913	1.08	0.994	1.03	1.12	0.986	0.978	0.88	0.878	0.731	0.847	0.827
EPLC-272H	0.284	0.259	0.236	0.183	0.24	0.19	0.281	0.476	0.678	0.849	0.597	0.725	0.74		0.87	0.89	1.08	0.921
H3255	0.511	0.661	0.582	0.593	0.827	0.945	0.821	0.935	0.835	1	0.865	0.893	0.788	0.268	0.263	0.195	0.282	0.319
HARA	0.481	0.443	0.327	0.263	0.38	0.34	0.341	0.152	0.916	0.947	0.925	0.891	0.886	0.876	0.68	0.647	0.822	0.758
HCC-15	0.522	0.344	0.256	0.19	0.996	0.808	1.01	0.631	0.998	1.02	0.96	0.931	0.825	0.887	0.855	0.774	0.796	0.774
HCC-44	0.482	0.388	0.35	0.368	1.07	1.08	1.02	1.16						0.981	0.979	0.997	1.08	0.973
HCC-78	0.346	0.397	0.396	0.385	0.576	0.581	0.526	0.477	0.518	0.54	0.525	0.484	0.576	0.859	0.736	0.604	0.935	0.662
HCC-366	0.911	0.756	0.72	0.422	0.27	0.324	0.253	0.166	0.86	1.04	0.872	0.963	0.974	1.1	1.01	0.933	1.04	0.951
HCC-827	0.782	0.751	0.62	0.708	0.2	0.195	0.194	0.209	0.966	1.03	0.971	0.98	0.916	0.234	0.216	0.174	0.191	0.233
HOP-62	0.887	0.751	0.818	0.5	0.591	0.542	0.5	0.241	1.07	1.16	0.997	1.08	1.03	1.29	1.12	1.02	1.01	0.896

Cell Line	relative viability (Selumetinib + OSI-027; first compound 0.02 µM)	relative viability (Selumetinib + OSI-027; first compound 0.06325 µM)	relative viability (Selumetinib + OSI-027; first compound 0.2 µM)	relative viability (Selumetinib + OSI-027; first compound 0.6325 µM)	relative viability (Selumetinib + AZD7762; first compound 0.02 µM)	relative viability (Selumetinib + AZD7762; first compound 0.06325 µM)	relative viability (Selumetinib + AZD7762; first compound 0.2 µM)	relative viability (Selumetinib + AZD7762; first compound 0.6325 µM)	relative viability (Venetoclax + Foretinib; first compound 0.01 µM)	relative viability (Venetoclax + Foretinib; first compound 0.03162 µM)	relative viability (Venetoclax + Foretinib; first compound 0.1 µM)	relative viability (Venetoclax + Foretinib; first compound 0.3162 µM)	relative viability (Venetoclax + Foretinib; first compound 1 µM)	relative viability (Venetoclax + Lapatinib; first compound 0.01 µM)	relative viability (Venetoclax + Lapatinib; first compound 0.03162 µM)	relative viability (Venetoclax + Lapatinib; first compound 0.1 µM)	relative viability (Venetoclax + Lapatinib; first compound 0.3162 µM)	relative viability (Venetoclax + Lapatinib; first compound 1 µM)
IA-LM									1.02	1.17	1.13	1.14	0.977	0.849	0.723	0.646	0.897	0.552
LCLC-103H	0.474	0.425	0.453	0.44	0.722	0.761	0.749	0.64	0.758	0.782	0.698	0.767	0.801					
NCI-H441	0.593	0.494	0.598	0.517	1.07	0.974	1.01	0.69	0.903	0.962	0.966	0.97	0.686					
NCI-H520	0.242	0.243	0.243	0.238					0.628	0.708	0.711	0.949	0.727	0.86	0.979	0.76	0.903	0.732
NCI-H522	0.693	0.64	0.685	0.682	0.728	0.781	0.842	0.828										
NCI-H661	0.804	0.582	0.571	0.57					0.978	1.01	1.02	0.996	0.888	0.519	0.615	0.491	0.5	0.487
NCI-H1299									1.07	1.11	1.1	1.07	1.03	0.993	0.96	0.976	0.959	0.909
NCI-H1563	0.721	0.713	0.779	0.783					0.922	0.968	0.961	1.05	0.94	0.691	1.08	1.14	1.28	0.953
NCI-H1623	0.39	0.383	0.343	0.359					0.897	0.906	0.893	0.836	0.858					
NCI-H1648	0.29	0.266	0.293	0.289		0.737	0.733	0.67										
NCI-H1650	0.677	0.405	0.637	0.548					1.12	1.11	1.13	1.2	1.07	0.764	0.873		1.01	0.81
NCI-H1703					0.157	0.119		0.134	0.345		0.397	0.328	0.367	0.992	1.11	0.895	1.01	1.03
NCI-H1792	0.761	0.727	0.67	0.611	0.571	0.447	0.417	0.393						0.933	0.946	0.869	0.916	0.803
NCI-H2009	0.52	0.491	0.395	0.261					1.22	1.25	1.1	1.19	1.13	1.06	0.902	1.05	1.01	0.851
NCI-H2023	0.392	0.348	0.318	0.375					0.813	0.924	1.14	0.84	0.653	0.935	0.888	0.748	0.898	0.627
NCI-H2228	0.48	0.512	0.402	0.374					0.788	0.906	0.851	1	0.776	1.15	1.29	1.21	1.09	0.954
NCI-H2342	0.611	0.6	0.46	0.59	0.551	0.436	0.474	0.568	1	1.23	1.03	1.01	1.13					
SK-LU-1	0.339	0.331	0.357	0.208					0.776	0.853	0.767	0.816	0.775	0.907	1.1	0.859	0.955	0.893
SK-MES-1	0.603	0.598	0.587	0.447					0.895	0.988	0.951	0.991	0.899	0.462	0.53	0.461	0.425	0.463
SW 900	0.594	0.554	0.477	0.588	0.59	0.636	0.611	0.553	0.745	1.05	0.823	0.916	1.16					
SW 1573	0.515	0.449	0.464	0.458					0.943	0.974	0.811	0.781	0.828	1.15	0.979	0.935	1.08	0.966
